Test [1] has as its system T cells from cat-allergic patients. The test is described as follows: Secondary proliferation assay of T cells primed with TRFP, peptide YXZ or peptide YZX. In kind it is cell-based, human. As to the method: The human cat allergic T cell response to peptides produced as above was examined. […] Peptide YZX was cleaved with thrombin as described in Example 25. Viable cells were then purified by Ficoll-Hypaque centrifugation and cultured for 2 additional weeks in RPMI-1640/5% AB serum containing 5 units recombinant human IL-2/ml and 5 units recombinant human IL-4/ml. The resting T cells were then tested in a secondary proliferation assay using a 96 well microtiter plate to assess T cell responses to various TRFP proteins or peptides (TRFP antigens). For assay, 2×10^4 resting T cells were cultured for 3 days at 37° C. in the presence of 2×10^4 autologous Epstein-Barr virus transformed B cells (25,000 Rads) as antigen presenting cells with various concentrations of antigen in 200 μl per well. Each well then received 1 μCi tritiated thymidine for 16 hours. The counts incorporated were collected onto glass fiber filters and processed for liquid scintillation counting. The stimulation indices for responses to each antigen were then calculated as the maximum CPM in response to antigen divided by the medium control CPM. A stimulation index of 2.5 was considered to be a positive T cell response. A summary of the results of 3 such experiments (patients 522, 519, and 386 is shown in FIG. 35a, FIG. 35b and FIG. 35c). As compared to the experiments shown in FIGS. 35a and 35b in the experiment shown in […], Fel-1.4 (chain 1, amino acid residues 6-17) was substituted for Fel-1.2 (chain 1, amino acid residues 1-17) and Fel-33.3 (chain 2, amino acid residues 26-40) was substituted for Fel-18 (chain 2, amino acid residues 23-48) in order to more closely resemble the constituent amino acids of peptides X and Z. In addition, in this experiment one peptide derived from the Y-Z junction of peptide YZX (amino acid residues 50-55 from chain 1 of TRFP and amino acid residues 14-19 from chain 2 of TRFP) and one peptide derived from the Z-X junction of peptide YZX (amino acid residues 34-39 of chain 2 of TRFP and amino acid residues 7-12 of chain 1 of TRFP) were synthesized and tested. These junction peptides were produced in order to determine whether these areas of peptide YZX produce a non-native epitope when formed in the peptide.

In a further test the test system is basophils. The test is described as follows: Histamine release from basophils in heparinized whole blood of cat allergic patients. In kind it is cell-based, human. The note with it: eight cat allergic patients. The protocol:
The histamine release assay used for these studies is based on the detection of an acylated derivative of histamine using a specific monoclonal antibody (Morel, A. M. and Delaage, M. A.; 1988, J. Allergy Clin. Immunol. 82:646-654.) This assay was performed as two separate protocols: 1) the release of histamine from basophils present in heparinized whole blood in the presence of different concentrations of antigens and 2) the actual assaying of histamine present in the supernates of the release reactions following cell removal by centrifugation. The reagents for this histamine radioimmunoassay are supplied commercially as a kit by Amac Inc. (Westbrook, Me.).
Whole blood was drawn from cat allergic patients using heparinized syringes or vacutainers. […] The buffer control consisted of whole blood with just buffer and no added antigen. The release reactions were then carried out at 37° C. for 30 minutes. After this incubation the tubes were centrifuged at 1500 RPM for 3 minutes and the supernates were carefully removed. It was important to spin gently so that there would be no cell lysis giving misleading results. […]
For the RIA analysis, a 50 μl aliquot of the release supernatant was diluted 1:4 with Histamine release buffer (supplied with the kit from Amac Inc.) Then 100 μl of each diluted supernatant was added to the tubes containing the acylation reagent (a lyophilized powder). […] Then they were counted on a gamma counter (Cobra 5005, Beckman Inc.) for two minutes/tube.
Following the quantitation of ^125I label/tube the standard curve is generated from the histamine standard counts and plotted on semi-log paper. Because this is a competition assay, with labelled ^125I tracer competing with the standards or unknowns for cell supernatants, the lower the recorded counts the greater the amount of cold acylated histamine in the binding assay. The data points were then generated by reading off the values on the plotted standard curve of counts versus histamine concentration (in nM).

The test system of test [2] is human IgE (cat allergic patient plasma). Put plainly: Direct binding ELISA of human IgE to coated antigen. The note with it: for specific IgE binding: direct binding ELISA or similar protocol. The protocol:
The basic format of these ELISA assays was a direct binding assay wherein the antigen was coated onto the wells of a 96 well microtitre dish and then antibodies in solution are added and assayed for the binding capacity. The protocol for these assays was as follows:
The peptides were conjugated to HSA (human serum albumin) by two different methods based on their chemical structure. […] Both conjugates were filter purified and dialyzed against PBS. In the ELISA assay, the unbound coating antigens were removed and the wells were blocked with 0.5% gelatin in PBS, 200 μl/well for 2 hours at room temperature. The antibody solution was a pool of plasma samples from 20 patients that were skin test positive for commercial cat extract which was serially diluted with PBS-Tween 20 (PBS with 0.05% nonionic detergent Tween-Sigma, St. Louis Mo.) and 100 μl/well was added and incubated overnight at 4° C. (plasma dilutions are tested in duplicate). […] The second antibody (biotinylated goat anti-Human IgE, 1:1000 Kirkegaard & Perry Laboratories Inc. Gaithersburg, Md.), was added at 100 μl/well for one hour at room temperature. This solution was removed and streptavidin-HRPO, 1:1000, (Southern Biotechnology Associates, Inc., Birmingham, Ala.) was then added at 100 μl/well for one hour at room temperature (all wells were washed three times with PBS-Tween between each incubation step). TMB Membrane Peroxidase Substrate system (Kirkegaard & Perry Laboratories) was freshly mixed, and added at 100 μl/well. The color was allowed to develop for 2-5 minutes. The reaction was stopped by the addition of […] of 1 M phosphoric acid. Plates are read on a Microplate EL 310 Autoreader (Biotek Instruments, Winooski, Vt.) with a 450 nm filter. The absorbance levels of duplicate wells were averaged.

Where [3] appears, read: patient 386, T cells primed with YZX.
Where [4] appears, read: patient 386, T cells primed with native TRFP.
Setting [5] is: patient 519, cells primed with peptide YXZ.
Setting [6] is: patient 522, T cells primed with YXZ.
Setting [7] is: patient 519, native TRFP-primed T cells.
Setting [8] is: patient 522, T cells primed with native TRFP, SI 2.5 positive.

The record followed here is patent US7482008B1, “Human T cell reactive feline protein (TRFP) isolated from house dust and uses therefor” (Merck Patent GmbH, priority 1989, dated 2009).

For “peptide X: amino acid residues 7-30 from chain 1 of TRFP (SEQ. ID. NO: 17); Table 2 lists Fel 8-3 as 7-33 (KRDVDLFLTGTPDEYVEQVAQYKALPV)”, the T cell response entry in test [1] (setting [3]) was “respond at a similar level or better”; in test [1] (setting [4]) it was “positively respond”; in test [1] (setting [5]), “positive responses”; in test [1] (setting [6]), “respond at a similar level or better”. The histamine release result with basophils was “no discernible histamine release”. Also, the “specific IgE binding” value is recorded as “do not demonstrate any specific IgE binding” in test [2] and “No direct IgE binding” in test [2] (listed as Fel 8-3).
As to “NARILKNCVDAKMTEEDKE [Fel 4, TRFP chain 1 amino acids 37-55]”, the T cell response result in test [1] (setting [5]) was “positive responses”; in test [1] (setting [6]), “respond at a similar level or better”.
For the substance “peptide Y: amino acid residues 29-55 from chain 1 of TRFP (SEQ. ID. NO: 18) (KALPVVLENARILKNCVDAKMTEEDKE)”, the T cell response result in test [1] (setting [3]) is listed as “respond at a similar level or better”; in test [1] (setting [4]), “positively respond”; in test [1] (setting [5]) it was “positive responses”; in test [1] (setting [7]) it was “respond”; in test [1] (setting [6]) it was “respond at a similar level or better”; in test [1] (setting [8]), “positively respond”. For the same substance, the histamine release entry with basophils is reported as “no discernible histamine release”. The “specific IgE binding” value in test [2] is “do not demonstrate any specific IgE binding”; in test [2] (listed as Fel 30-4), “No direct IgE binding”.
For “TRFP: human T cell reactive feline protein affinity purified from house dust; two covalently linked chains”, the T cell response result was “respond at a similar level or better” in test [1] (setting [3]); “positively respond” in test [1] (setting [4]); “positive responses” in test [1] (setting [5]); “respond” in test [1] (setting [7]); “respond less well” in test [1] (setting [6]); “positively respond” in test [1] (setting [8]). For the same substance, the histamine release result in the test on basophils was “at all but the lowest concentration, gives a clear release signal”. In test [2] (ELISA, percent of cat allergic patients with positive IgE binding), the “Positive Binding” value is 100%. The “absorbance reading, IgE binding” value in test [2] (pooled plasma, first dilution 1:2 in PBS) is on record as 0.65.
